Non-standard residues stand in square brackets, D forms with d. Residues, ends and D or L forms follow the SMILES beside them. No end group written: not given here.
Tests used:
[1] = molecular target: T1, CB1R and 5-HT2AR heteromers (Homo sapiens, UniProt P28223); test: Disruption of CB1R and 5-HT2AR heteromers by bimolecular fluorescence complementation; type: cell-based; conditions: HEK-293T, CB1R-nYFP + 5-HT2AR-cYFP, peptide 4 μM, 4 h, 37° C.
T1 construct: expressed in transfected cells; host or cells: HEK-293T
T1 sequence (P28223 whole entry, one chain of several): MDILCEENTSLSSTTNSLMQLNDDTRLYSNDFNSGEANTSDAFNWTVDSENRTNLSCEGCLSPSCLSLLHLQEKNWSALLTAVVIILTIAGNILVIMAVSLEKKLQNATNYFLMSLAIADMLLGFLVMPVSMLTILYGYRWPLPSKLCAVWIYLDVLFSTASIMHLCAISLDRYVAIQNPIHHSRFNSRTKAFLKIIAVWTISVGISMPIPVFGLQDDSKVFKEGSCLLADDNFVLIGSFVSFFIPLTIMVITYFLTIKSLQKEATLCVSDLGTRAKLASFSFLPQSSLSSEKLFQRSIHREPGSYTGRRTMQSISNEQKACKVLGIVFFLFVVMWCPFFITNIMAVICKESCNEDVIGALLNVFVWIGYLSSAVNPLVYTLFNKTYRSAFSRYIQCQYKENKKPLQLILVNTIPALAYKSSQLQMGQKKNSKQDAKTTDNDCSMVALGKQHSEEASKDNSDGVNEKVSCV
Text: The method described in “Viñals* X, Moreno* E, Lanfumey L, Cordomi A, Pastor A, de La Torre R, Gasperini P, Navarro G, Howell L A, Pardo L, Lluís C, Canela El, McCormick* P J, Maldonado* R, Robledo* P. Cognitive Impairment Induced by Delta9-tetrahydrocannabinol Occurs through Heteromers between Cannabinoid CB1 and Serotonin 5-HT2A Receptors. PLoS Biology, 13(7): e1002194 (2015)” was used with the slight modifications herein described herein to determine the in vitro capacity of the peptides to disrupt CB1R and 5-HT2AR heteromers.
To obtain the YFP Venus hemi-truncated proteins fused to the receptors of interest (5-HT2AR-cYFP, CB1R-nYFP), 5-HT2AR was subcloned to be in-frame with restriction sites of pcDNA3.1-cVenus, which contained the sequences encoding amino acid residues 156-238 of YFP Venus protein. Moreover, CB1R was subcloned to be in-frame with restriction sites of pcDNA3.1-nVenus, which contained the sequences encoding amino acid residues 1-155 of YFP Venus protein.
Expression of constructs was tested by confocal microscopy and the receptor fusion protein functionality by ERK1/2 phosphorylation.
Human embryonic kidney (HEK-293T) cells obtained from ATCC were grown in Dulbecco's modified Eagle's medium (DMEM) (Gibco) supplemented with 2 mM L-glutamine, 100 μg/ml sodium pyruvate, 100 U/ml penicillin/streptomycin, MEM Non-Essential Amino Acids Solution (1/100), and 5% (v/v) heat inactivated fetal bovine serum (FBS) (all supplements were from Invitrogen, Paisley, Scotland, UK). Cells were maintained at 37° C. in an atmosphere of 5% CO2.
Cells growing in 6-well dishes were transiently transfected with the cDNA encoding for CB1R fused to the YFP Venus N-terminal fragment (n-YFP) and 5-HT2AR fused to the YFP Venus C-terminal fragment (c-YFP) by the PEI (PolyEthylenlmine, Sigma) method. Cells were incubated 4 h with the corresponding cDNA together with PEI and 150 mM NaCl in a serum-starved medium. After 4 h, the medium was changed to a fresh complete culture medium.
After 48 h, cells were treated or not with the indicated TAT-peptides (4 μM) for 4 h at 37° C. To quantify the complemented YFP Venus expression, cells were washed twice in quick succession in HBSS with 10 mM glucose, detached, and resuspended in the same buffer. To control the cell number, sample protein concentration was determined using a Bradford assay kit (Bio-Rad, Munich, Germany) using bovine serum albumin dilutions as standards. 20 μg protein were distributed into 96-well microplates (black plates with a transparent bottom, Porvair, King's Lynn, UK), and fluorescence emission at 530 nm after the excitation at 500 nm with a Mithras LB940 (Berthold Technologies, Bad Wildbad, Germany) was recorded. Protein fluorescence was determined as fluorescence of the sample minus the fluorescence of untransfected cells (basal).

bEnd.3 cells = test: in vitro; conditions: bEnd.3, 24 h, 0.01-50 μM
Procedure: (§1) bEnd.3 brain endothelioma cells (ATCC® CRL-2299TM) were grown as a monolayer on 75 cm^2 T-flasks in DMEM supplemented with 10% fetal bovine serum (FBS), and 1% penicillin/streptomycin antibiotic solution (Gibco™, USA). Cells were cultured in a humidified atmosphere of 95% air and 5% CO2 at 37° C. (MCO-18AIC (UV), Sanyo, Japan), with the medium changed every other day. The cells were harvested from cell culture T-flasks when confluent with trypsin-EDTA (Gibco™, USA) and used in different assays (cell proliferation, in vitro BBB translocation and in vitro Bimolecular Fluorescence complementation).
(§2) The in vitro cytotoxicity of the compound to be evaluated is studied using the same cell line of the in vitro BBB model, namely bEnd.3 cells, to evaluate possible toxicity. bEnd.3 cell line was exposed to increasing concentrations of the compound for 24 h.
(§3) The assay is based on the ability of viable cells to reduce resazurin into resorufin, a highly fluorescent metabolite. Non-viable cells are not able to generate resorufin.
(§4) Therefore, using this approach is possible to distinguish between metabolic and non-metabolic cells, and indirectly to determine the cytotoxicity of different compounds. bEnd.3 cells were seeded onto a 96-well plate (Corning, USA) at 10,000 cells/100 μL/well and incubated for 24 h. After medium removal, 100 μL of previous diluted peptides (range between 0.01-50 μM) in DMEM medium were added to the wells. After 24 h incubation, 20 μL of CellTiter-Blue® Reagent was added to each well and incubated for 3 h in a humidified atmosphere of 5% CO2 at 37° C. The fluorescence intensity was measured with an λexc=560 nm and an λem=590 nm using an Infinite F200 TECAN plate reader. Medium and 1% Triton X-100-containing medium were used as positive controls (100% cell viability) and negative controls (0% cell viability), respectively. Cell viability (%) was determined using the following equation:
(§5) [formula] where Fp is the fluorescence intensity of peptide-treated cells, FNC is the fluorescence intensity for negative controls, and FPC is the fluorescence intensity for positive controls.
(§6) Experiments were performed on different days using independently grown cell cultures.

in vitro = conditions: mouse, bEnd.3 brain endothelioma cells
Procedure: as §1, §2, §3, §4, §5, §6

trypsin [2] = test: in vitro; conditions: pH 8.2
Procedure: (§7) A 1000 μg/1000 μL trypsin solution (Thermo Fisher Scientific) was prepared by suspending the lyophilized enzyme in 50 mM ammonium bicarbonate buffer, pH 8.2. Peptide dissolved in the same buffer (1 μg/L) was incubated with trypsin (peptide:trypsin ratio=100:1) for 24 h at 37° C. Samples were collected at various time points and digestion was stopped by addition of 20% (v/v) of 0.5% formic acid in H2O. Samples were stored at −20° C. until analyzed by reverse-phase HPLC-MS. Experiments are performed in duplicate and data were fit with GraphPad Prism.

trypsin [3] = conditions: peptide remaining by HPLC, incubation with trypsin 100:1, 37° C.
Procedure: as §7

[4] = Hot plate test (analgesic effect); type: in vivo; conditions: Vehicle (IV) + THC 10 mg/kg IP, hot plate 52° C., mice
Procedure: The method described in “Monory K, Blaudzun H, Massa F, Kaiser N, Lemberger T, Schütz G, Wotjak C T, Lutz B*, Marsicano G*. Genetic Dissection of Behavioural and Autonomic Effects of D9-tetrahydrocannabinol in Mice. PLoS Biology, 5(10): e269, 2007” was used with the slight modifications herein described to assess the analgesic effect of the peptides.
THC-induced analgesia was measured using a hot plate analgesia meter (Hot/Cold Plate Test, Bioseb, USA) 60 min after intraperitoneal injection (IP) of THC dissolved in an IP vehicle (5% v/v of ethanol, 5% v/v of Cremophor-EL and 90% v/v saline) or injection of the vehicle (saline plus 2% DMSO) alone and by intravenous injection 90 min after the first injection of the peptide to be tested in an IV vehicle or of the vehicle alone. […] A cut-off time of 240 s was set to prevent tissue damage.

[5] = Novel object recognition test (memory); type: in vivo; conditions: Vehicle (IV) + THC 3 mg/kg IP, mice
Procedure: The method described in “Puighermanal E, Marsicano G, Busquets-Garcia A, Lutz B, Maldonado R, Ozaita A. Cannabinoid modulation of hippocampal long-term memory is mediated by mTOR signaling. Nature Neuroscience, 12(9): 1152-8 (2009)” was used with the slight modifications herein described to assess the effect of the peptides on memory.
On day 1 (Habituation), mice were habituated for 9 min to the V-maze in which the task was performed. On the second day (Training), mice were put back in the V-maze for 9 min, two identical objects were presented and the time that the mice spent exploring each object was recorded. The mice were again placed in the maze 24 h later for 9 min (Test), one of the familiar objects was replaced with a novel object and the total time spent exploring each of the two objects (novel and familiar) was computed. Object exploration was defined as the orientation of the nose to the object at less than 2 cm. A discrimination index was calculated as the difference between the times spent exploring the novel or familiar object divided by the total time exploring the two objects. A higher discrimination index is considered to reflect greater memory retention for the familiar object as normal mice spend more time exploring a novel object than a familiar one. […]

Molecule: VYAYMYILW[dA]G[dI][dL][dK][dR][dW]-NH2 [Reference Example 2]
- % vs. control (bimolecular fluorescence complementation) [1]: 63.5%
- Fluorescense units (bimolecular fluorescence complementation) [1]: 13568 fluorescence units

Molecule: [dW][dL][dI][dY][dM][dA]G[dI][dL][dK][dR][dW]-NH2 [Reference Example 3]
- % vs. control (bimolecular fluorescence complementation) [1]: 78.5%
- Fluorescense units (bimolecular fluorescence complementation) [1]: 16754 fluorescence units

Molecule: CC[C@@H](C)[C@@H](NC(=O)CNC(=O)[C@@H](C)NC(=O)[C@H](NC(=O)[C@@H](Cc1ccc(O)cc1)NC(=O)[C@@H](C)NC(=O)[C@@H](Cc1ccc(O)cc1)NC(=O)[C@@H](CCSC)NC(=O)[C@@H](Cc1ccc(O)cc1)NC(=O)[C@H](NC(=O)[C@@H](CC(C)C)NC(=O)[C@H](N)Cc1c[nH]c2ccccc12)[C@H](C)CC)C(C)C)C(=O)N[C@H](CC(C)C)C(=O)N[C@H](CCCCN)C(=O)N[C@H](CCCNC(=N)N)C(=O)N[C@H](Cc1c[nH]c2ccccc12)C(N)=O [Example 1, D-Trp-D-Leu-D-Ile-D-Tyr-D-Met-D-Tyr-D-Ala-D-Tyr-D-Val-D-Ala-Gly-D-Ile-D-Leu-D-Lys-D-Arg-D-Trp-NH2] (H-[dW][dL][dI][dY][dM][dY][dA][dY][dV][dA]G[dI][dL][dK][dR][dW]-NH2)
- % vs. control (bimolecular fluorescence complementation) [1]: 49.8%
- toxicity (in words) (bEnd.3 cells): no significant toxicity
- EC50 at 24 h (in vitro): > 50 µM
- viability at 24 h, 0.012 µM (in vitro): 98.3%
- viability at 24 h, 0.024 µM (in vitro): 98.3%
- viability at 24 h, 0.049 µM (in vitro): 98.7%
- viability at 24 h, 0.1 µM (in vitro): 95.4%
- viability at 24 h, 0.2 µM (in vitro): 100%
- viability at 24 h, 0.39 µM (in vitro): 102%
- viability at 24 h, 0.78 µM (in vitro): 98.9%
- viability at 24 h, 1.56 µM (in vitro): 102%
- viability at 24 h, 3.12 µM (in vitro): 100%
- viability at 24 h, 6.25 µM (in vitro): 96.6%
- viability at 24 h, 12.5 µM (in vitro): 104%
- viability at 24 h, 25 µM (in vitro): 96.6%
- viability at 24 h, 50 µM (in vitro): 75.7%
- remaining at 24 h, 1 μg/L (trypsin [2]): 83 ± 4.04%
- % at t = 24 h (trypsin [3]; pH 8.2, 24 h): over 80%
- % at t = 0 (trypsin [3]; pH 8.2, t = 0): 100.00 ± 2.05%

Molecule: Glu-Thr-Tyr-Leu-Met-Phe-Trp-Ile-Gly-Val-Thr-Ser-Val-Leu-Leu-Leu-Phe-Ile-Val-Tyr-Ala-Tyr-Met-Tyr-Ile-Leu-Trp-Gly-Arg-Lys-Lys-Arg-Arg-Gln-Arg-Arg-Arg-NH2 (ETYLMFWIGVTSVLLLFIVYAYMYILWGRKKRRQRRR-NH2) [Reference Example 1]
- % vs. control (bimolecular fluorescence complementation) [1]: 52.2%
- Fluorescense units (bimolecular fluorescence complementation) [1]: 11154 fluorescence units

Molecule: CCCCCc1cc(O)c2c(c1)OC(C)(C)[C@@H]1CCC(C)=C[C@@H]21 [THC, Δ9-tetrahydrocannabinol]
- Jumping latency % increase vs control [4]: 71.4%
- Licking latency % increase vs control [4]: 104.2%
- Discrimination index % increase vs. control [5]: −52%

Reference: patent publication US12459973B2, “Peptide compounds for reducing side effects of CB1 receptor agonists” (priority 2019, dated 2025)
